The results in this text go back to patent US20250353873A1, “COMPOUNDS AND METHODS FOR MODULATING APOE EXPRESSION” (Ionis Pharmaceuticals, Inc., priority 2024, published 2025).

The test system of the series is human APOE RNA. In words: Dose-dependent inhibition of human APOE RNA in HepG2 cells, electroporation, 50,000 cells per well, RT-PCR normalized to GAPDH (Example 4, Tables 8-10). It is filed as cell-based. The conditions noted are these: HepG2, electroporation. The procedure:
Modified oligonucleotides selected from the examples above were tested at various doses in HepG2 cells. The modified oligonucleotides were tested in a series of experiments that had the same culture conditions. Each experiment is identified in separate tables below.
HepG2 cells plated at a density of 50,000 cells per well were treated by electroporation with various concentrations of modified oligonucleotide as specified in the tables below. […] APOE RNA levels were measured using the human primer probe set RTS3073 (forward sequence […], designated herein as SEQ ID NO: 7; reverse sequence CCATCAGCGCCCTCAGTT, designated herein as SEQ ID NO: 8; probe sequence […], designated herein as SEQ ID NO:9). APOE RNA levels were normalized to human GAPDH. […] Results are presented as percent APOE RNA, relative to the amount of APOE RNA in untreated control cells (UTC).

Strand notation (5' to 3'): a small letter for the sugar, then the base; units joined by * are phosphorothioate-linked, units joined directly phosphodiester-linked; [ ] holds rarer units or linkages, { } end groups; capitals alone tell only the bases. [ms] = mesyl phosphoramidate linkage; e = 2'-O-(2-methoxyethyl) (MOE); k = constrained ethyl (cEt); [5mC] = 5-methylcytosine; d = 2'-deoxy (DNA)

With “1757566 (eA*e[5mC]eTkTkG*dG*dT*dG*dA*dA*dT*d[5mC]*dT*dT*dT*eAeTeT*eA*eA; antisense) [Compound 1757566]”, the “APOE RNA (% UTC)” value (5 nM, 16-hour treatment) worked out at 82 % UTC; the “APOE RNA (% UTC)” value (13 nM, 16-hour treatment) came out at 87 % UTC; the “APOE RNA (% UTC)” value (33 nM, 16-hour treatment) was 85 % UTC; the “APOE RNA (% UTC)” value (82 nM, 16-hour treatment) stood at 73 % UTC; the “APOE RNA (% UTC)” value (205 nM, 16-hour treatment) was 77 % UTC; the “APOE RNA (% UTC)” value (512 nM, 16-hour treatment) was determined as 49 % UTC. The “APOE RNA (% UTC)” value (1,280 nM, 16-hour treatment) was determined as 31 % UTC; the “APOE RNA (% UTC)” value (3,200 nM, 16-hour treatment) stood at 22 % UTC; the “APOE RNA (% UTC)” value (8,000 nM, 16-hour treatment) stood at 17 % UTC; the “APOE RNA (% UTC)” value (20,000 nM, 16-hour treatment) worked out at 21 % UTC. Also, half-maximal inhibition (16-hour treatment) (IC50) was put at 550 nM.

Take “1747051 (k[5mC]*kT*dT[ms]kG*dG[ms]kT*dG[ms]dA[ms]dA[ms]dT*d[5mC]*dT*dT*dT*dA[ms]dT*kT*dA[ms]dA[ms]kA; antisense) [Compound 1747051]”: the “APOE RNA (% UTC)” value runs as follows: (5 nM, 24-hour treatment) 111 % UTC; (13 nM, 24-hour treatment) 117 % UTC; (33 nM, 24-hour treatment) 152 % UTC; (82 nM, 24-hour treatment) 128 % UTC; (205 nM, 24-hour treatment) 111 % UTC; (512 nM, 24-hour treatment) 67 % UTC. Moreover, the “APOE RNA (% UTC)” value runs as follows: (1,280 nM, 24-hour treatment) 76 % UTC; (3,200 nM, 24-hour treatment) 42 % UTC; (8,000 nM, 24-hour treatment) 31 % UTC; (20,000 nM, 24-hour treatment) 9 % UTC. In addition, under “24-hour treatment”, half-maximal inhibition (IC50) required 2900 nM.

For the substance “1746791 (k[5mC]*dT[ms]dT[ms]kG*kG*dT[ms]dG[ms]dA[ms]dA[ms]dT*d[5mC]*dT*dT*dT*dA[ms]dT*kT*kA*dA[ms]kA; antisense) [Compound 1746791]”, the “APOE RNA (% UTC)” value (5 nM, 24-hour treatment) is reported as 88 % UTC; the “APOE RNA (% UTC)” value (13 nM, 24-hour treatment) was 104 % UTC; the “APOE RNA (% UTC)” value (33 nM, 24-hour treatment) is 93 % UTC; the “APOE RNA (% UTC)” value (82 nM, 24-hour treatment) stood at 88 % UTC; the “APOE RNA (% UTC)” value (205 nM, 24-hour treatment) was determined as 80 % UTC; the “APOE RNA (% UTC)” value (512 nM, 24-hour treatment) is 62 % UTC. In addition, the “APOE RNA (% UTC)” value came out at 35 % UTC (1,280 nM, 24-hour treatment); 21 % UTC (3,200 nM, 24-hour treatment); 16 % UTC (8,000 nM, 24-hour treatment); 21 % UTC (20,000 nM, 24-hour treatment). Under “24-hour treatment”, this substance yielded an IC50 of 850 nM.

For “1746785 (k[5mC]*kT*dT[ms]kG*dG[ms]dT[ms]dG[ms]dA[ms]dA[ms]dT*d[5mC]*dT*dT*dT*dA[ms]dT*kT*kA*dA[ms]kA; antisense) [Compound 1746785]”, the “APOE RNA (% UTC)” value (5 nM, 24-hour treatment) is reported as 90 % UTC; the “APOE RNA (% UTC)” value (13 nM, 24-hour treatment) was found to be 93 % UTC; the “APOE RNA (% UTC)” value (33 nM, 24-hour treatment) was found to be 97 % UTC; the “APOE RNA (% UTC)” value (82 nM, 24-hour treatment) is 84 % UTC; the “APOE RNA (% UTC)” value (205 nM, 24-hour treatment) was 83 % UTC; the “APOE RNA (% UTC)” value (512 nM, 24-hour treatment) stood at 53 % UTC. In addition, the “APOE RNA (% UTC)” value was 48 % UTC (1,280 nM, 24-hour treatment); 29 % UTC (3,200 nM, 24-hour treatment); 8 % UTC (8,000 nM, 24-hour treatment); 35 % UTC (20,000 nM, 24-hour treatment). Also, for the setting “24-hour treatment”, half-maximal inhibition (IC50) was put at 1040 nM.

As to “1747053 (k[5mC]*dT[ms]dT[ms]kG*kG*kT*dG[ms]dA[ms]dA[ms]dT*d[5mC]*dT*dT*dT*dA[ms]dT*kT*dA[ms]dA[ms]kA; antisense) [Compound 1747053]”, the “APOE RNA (% UTC)” value is 115 % UTC (5 nM, 24-hour treatment); 131 % UTC (13 nM, 24-hour treatment); 124 % UTC (33 nM, 24-hour treatment); 107 % UTC (82 nM, 24-hour treatment); 70 % UTC (205 nM, 24-hour treatment); 49 % UTC (512 nM, 24-hour treatment). Moreover, the “APOE RNA (% UTC)” value is, setting by setting: (1,280 nM, 24-hour treatment) 57 % UTC; (3,200 nM, 24-hour treatment) 39 % UTC; (8,000 nM, 24-hour treatment) 38 % UTC; (20,000 nM, 24-hour treatment) 32 % UTC. For the same substance, it took 2170 nM to reach half-maximal inhibition (24-hour treatment) (IC50).

Turning to “1766537 (eT*eTeGeGeT*dG[ms]dA[ms]dA[ms]dT*d[5mC]*dT*dT*dT[ms]dA*dT*kTkAeA*eA*e[5mC]; antisense) [Compound 1766537]”, the “APOE RNA (% UTC)” value reads like this: (5 nM, 16-hour treatment) 95 % UTC; (13 nM, 16-hour treatment) 111 % UTC; (33 nM, 16-hour treatment) 108 % UTC; (82 nM, 16-hour treatment) 89 % UTC; (205 nM, 16-hour treatment) 90 % UTC; (512 nM, 16-hour treatment) 85 % UTC. For the same substance, the “APOE RNA (% UTC)” value amounted to 62 % UTC (1,280 nM, 16-hour treatment); 36 % UTC (3,200 nM, 16-hour treatment); 21 % UTC (8,000 nM, 16-hour treatment); 5 % UTC (20,000 nM, 16-hour treatment). Under “16-hour treatment”, the IC50 came to 2010 nM.

As to “1746805 (k[5mC]*kT*dT[ms]kG*dG[ms]dT[ms]dG[ms]dA[ms]dA[ms]dT*d[5mC]*dT*dT*dT*dA[ms]dT*dT[ms]kA*kA*kA; antisense) [Compound 1746805]”, the “APOE RNA (% UTC)” value (5 nM, 24-hour treatment) turned out to be 95 % UTC; the “APOE RNA (% UTC)” value (13 nM, 24-hour treatment) is 109 % UTC; the “APOE RNA (% UTC)” value (33 nM, 24-hour treatment) is reported as 93 % UTC; the “APOE RNA (% UTC)” value (82 nM, 24-hour treatment) is 94 % UTC; the “APOE RNA (% UTC)” value (205 nM, 24-hour treatment) came out at 65 % UTC; the “APOE RNA (% UTC)” value (512 nM, 24-hour treatment) turned out to be 75 % UTC. Moreover, the “APOE RNA (% UTC)” value runs as follows: (1,280 nM, 24-hour treatment) 41 % UTC; (3,200 nM, 24-hour treatment) 39 % UTC; (8,000 nM, 24-hour treatment) 29 % UTC; (20,000 nM, 24-hour treatment) 11 % UTC. Half-maximal inhibition (24-hour treatment) (IC50) was put at 1360 nM.

Take “1746813 (k[5mC]*dT[ms]dT[ms]kG*dG[ms]kT*dG[ms]dA[ms]dA[ms]dT*d[5mC]*dT*dT*dT*dA[ms]dT*dT[ms]kA*kA*kA; antisense) [Compound 1746813]”: the “APOE RNA (% UTC)” value worked out at 137 % UTC (5 nM, 24-hour treatment); 117 % UTC (13 nM, 24-hour treatment); 119 % UTC (33 nM, 24-hour treatment); 101 % UTC (82 nM, 24-hour treatment); 100 % UTC (205 nM, 24-hour treatment); 83 % UTC (512 nM, 24-hour treatment). The “APOE RNA (% UTC)” value was determined as 57 % UTC (1,280 nM, 24-hour treatment); 41 % UTC (3,200 nM, 24-hour treatment); 19 % UTC (8,000 nM, 24-hour treatment); 21 % UTC (20,000 nM, 24-hour treatment). For the setting “24-hour treatment”, this substance yielded a half-maximal inhibitory concentration (IC50) of 2250 nM.

On to “1757557: mixed MOE/cEt gapmer TTGGTGAATCTTTATTAA, sugar eeeeeddddddddeekke, linkages soossssssssssooss (eT*eTeGeG*eT*dG*dA*dA*dT*d[5mC]*dT*dT*dT*eAeTkT*kA*eA) [compound 1757557]”, for which the “APOE RNA (% UTC)” value (5 nM, 16-hour treatment) came out at 79 % UTC; the “APOE RNA (% UTC)” value (13 nM, 16-hour treatment) came out at 88 % UTC; the “APOE RNA (% UTC)” value (33 nM, 16-hour treatment) is on record as 89 % UTC; the “APOE RNA (% UTC)” value (82 nM, 16-hour treatment) came to 88 % UTC; the “APOE RNA (% UTC)” value (205 nM, 16-hour treatment) worked out at 86 % UTC; the “APOE RNA (% UTC)” value (512 nM, 16-hour treatment) is 89 % UTC. Also, the “APOE RNA (% UTC)” value runs as follows: (1,280 nM, 16-hour treatment) 94 % UTC; (3,200 nM, 16-hour treatment) 59 % UTC; (8,000 nM, 16-hour treatment) 36 % UTC; (20,000 nM, 16-hour treatment) 7 % UTC. This substance returned an IC50 (16-hour treatment) of 4680 nM.

For the substance “1747052 (k[5mC]*dT[ms]kT*kG*dG[ms]kT*dG[ms]dA[ms]dA[ms]dT*d[5mC]*dT*dT*dT*dA[ms]dT*kT*dA[ms]dA[ms]kA; antisense) [Compound 1747052]”, the “APOE RNA (% UTC)” value reads like this: (5 nM, 24-hour treatment) 150 % UTC; (13 nM, 24-hour treatment) 113 % UTC; (33 nM, 24-hour treatment) 148 % UTC; (82 nM, 24-hour treatment) 127 % UTC; (205 nM, 24-hour treatment) 108 % UTC; (512 nM, 24-hour treatment) 79 % UTC. For the same substance, the “APOE RNA (% UTC)” value was determined as 53 % UTC (1,280 nM, 24-hour treatment); 46 % UTC (3,200 nM, 24-hour treatment); 31 % UTC (8,000 nM, 24-hour treatment); 19 % UTC (20,000 nM, 24-hour treatment). For the setting “24-hour treatment”, this substance returned a half-maximal inhibitory concentration (IC50) of 2710 nM.

For “1757569 (eA*e[5mC]eTkTkG*dG*dT*dG*dA*dA*dT*d[5mC]*dT*dT*dT*kAeTeT*eA*eA; antisense) [Compound 1757569]”, the “APOE RNA (% UTC)” value stood at 101 % UTC (5 nM, 16-hour treatment); 91 % UTC (13 nM, 16-hour treatment); 82 % UTC (33 nM, 16-hour treatment); 81 % UTC (82 nM, 16-hour treatment); 60 % UTC (205 nM, 16-hour treatment); 38 % UTC (512 nM, 16-hour treatment). For the same substance, the “APOE RNA (% UTC)” value (1,280 nM, 16-hour treatment) turned out to be 24 % UTC; the “APOE RNA (% UTC)” value (3,200 nM, 16-hour treatment) came to 24 % UTC; the “APOE RNA (% UTC)” value (8,000 nM, 16-hour treatment) came out at 18 % UTC; the “APOE RNA (% UTC)” value (20,000 nM, 16-hour treatment) was determined as 18 % UTC. Where the note is “16-hour treatment”, this substance showed an IC50 of 390 nM.
